The values that follow come from paper PMC12257544, “Fluorescent Isostere (Fluostere) of the Carboxylate: Design of hDHODH Fluorescent Inhibitors as Proof of Concept” (Journal of Medicinal Chemistry, 2025).

The structures appear in SMILES notation. Several values for one entry are separate records, joined by “and”; a condition that tells them apart may be missing. Equal values may be shown once. A value given as a limit tells only on which side of the number the result lay.

The test system of one data set is A549 cells. Nature of the data set: Cell viability assay (CellTiter-Glo). It is filed as cell-based. The conditions noted are these: Homo sapiens, A549, 72 h; 3 days of culture; read-out: Viability EC50 A549 (C.L. 95 %). How it is done:
After 3 days of culture, the percentage of live cells was determined using the CellTiter-Glo Luminescent assay (Promega, Milan, Italy), following the manufacturer’s instructions.

The next data set concerns THP-1 cells. Nature of the data set: Confocal fluorescence microscopy and Red-MitoTracker co-localization. The conditions noted are these: 10 μM, 24 h. It is filed as cell-based, human. The procedure: Thus, compounds 11a and 14 were subsequently examined in the context of living cells to determine whether they retained their fluorescence profile after entry into target cells. First, both compounds were incubated for 24 h with THP-1 cells at a concentration of 10 μM. After washing with PBS buffer, cells were analyzed under confocal microscopy using an appropriate laser stimulation (λex: 405 nm, λem: […]) to excite the molecules.
Co-localization experiments were performed to examine whether compound 11a may reach the cellular compartment where hDHODH is located. For this, a specific mitochondrial stain marker in the two cell lines in which the biological activities of 11a were observed, namely THP-1 and HCT-8 cells, was used. The compound was therefore incubated with THP-1 cells (Figure ) or HTC-8 cells (Figure ) at 37 °C for 24 h. Then, cells were stained with Red-MitoTracker (a specific fluorescent probe for mitochondrial targeting) for 30 min at 37 °C.
For fluorescence analysis, 10 μM of target compounds were incubated with THP-1 for 24 h. After washing the cells with a PBS buffer solution, they were analyzed under confocal microscopy imaging technique using the appropriate laser to excite the molecule. For the colocalization experiments, HCT-8 cells (55,000 cells/well) were plated on μ-Slide 8 well high glass bottom (IBIDI, Gräfelfing, Germany) and treated for 24 h with 10 μM of 11a at 37 °C. Then, cells were stained with MitoTracker Red CMXRos (ThermoFischer, Carlsbad, CA, USA) (1:4000) for 30′ at 37 °C and after washing with PBS buffer solution, cells were visualized with a Leica TCS SP5 multiphoton-inverted confocal microscope equipped with LAS AF matrix software. Live cells were imaged using an HCX PL APO 63×/1.4 NA oil immersion objective. Images were collected with excitation of ligand 11a at λex = 405 nm and emission at λem = 500 nm, Red-MitoTracker at λex = 581 nm and emission at λem = 605 nm.

In a further data set the test system is hCoV-OC43. Nature of the data set: Antiviral focus-forming reduction assay (FFRA) in HCT-8 cells. It is filed as cell-based, human coronavirus OC43. How it is done: After virus adsorption (2 h at 33 °C), the infected cell cultures were incubated in medium containing the corresponding compounds plus 1% (w/v) methylcellulose (Merck) and 1% (v/v) FBS. […] Viral foci were microscopically counted, and the mean plaque counts for each drug concentration was converted in viral titer (PFU/mL).

Another data set deals with HCT-8 cells. Put plainly: Cytotoxicity assay (CellTiter-Glo). In kind it is cell-based, human. The conditions noted are these: uninfected HCT-8 cells, 72 h. The procedure: (§1) After 72 h of incubation, the number of viable cells was determined using the CellTiter-Glo Luminescent assay (Promega, Milan, Italy). The cytotoxicity of the tested compounds was expressed as cytotoxic concentration (CC50).
(In general: Cellular ATP, detected with luciferase, serves as a proxy for viable cell number.)

Data set [1] can be described thus: Cytotoxicity assay (CellTiter-Glo). It is filed as cell-based, human. Particulars: human, HCT-8 cells (uninfected), uninfected HCT-8 cells. The procedure:
as §1

Data set [2] can be described thus: Photophysical characterization (absorption, emission, QY, lifetime). In kind it is physicochemical. How it is done:
UV–Vis absorption spectra were recorded on a Cary60 spectrometer. Photoemission spectra, luminescence lifetimes, and quantum yields were acquired with a HORIBA Jobin Yvon IBH Fluorolog-TCSPC spectrofluorometer equipped with a Quanta-φ integrating sphere. […] Emission-decay data were collected in 2048 channels to 10000 counts in the peak channel. IRF was measures using colloidal silica suspension in H2O to scatter light. Data were analyzed with the software DAS6 (TCSPC decay-analysis software) using a nonlinear least-squares method to fit of the decay to a sum of exponentials. The value of χ^2, residuals and the autocorrelation function (Durbin-Watson parameter) were used to determine the quality of the fit. For measurements in the presence of hDHODH, 11a was incubated, at 1 μM concentration in TRIS Buffer 0.1 mM (pH 8) with 0.1% DMSO, alone or with different concentrations of recombinant protein ranging from 31.5 to 504 nM concentration. After 5 min incubation UV–Vis absorption spectra were recorded on a Cary60 spectrophotometer and photoemission spectra were acquired with a HORIBA Jobin Yvon IBH Fluorolog-TCSPC spectrofluorometer with excitation λ of 366 nm and maximum of emission at 500 nm; a.u. data were analyzed with GraphPad Prism using One Site – Specific Binding equation.

Usually CC50 stands for the concentration that lowers cell viability or growth by half. High values mean better tolerance by the cells, low ones harm at low concentration.

For the compound `Oc1nn2ccccc2c1/C=C/c1c(F)c(F)c(-c2ccccc2)c(F)c1F` [Compound 11a, (E)-3-(2-(2,3,5,6-Tetrafluoro-[1,1’-biphenyl]-4-yl)vinyl)pyrazolo[1,5-a]pyridin-2-ol], in the data set with A549 cells, the EC50 was 0.423 µM. The intracellular localization entry in the data set with THP-1 cells (THP-1) is reported as “localize in the cytosol”. Moreover, the “fluorescence in living cells” value in the data set on THP-1 cells (THP-1, λex 405 nm) is recorded as “recovered a strong fluorescence”. Also, the “co-localization with Red-MitoTracker” value in the data set on THP-1 cells (THP-1 cells) is recorded as “localize into mitochondria”. Moreover, in the data set with hCoV-OC43 (Betacoronavirus 1, OC43, HCT-8, 72 h, read-out: EC50, concentration inhibiting 50% of virus replication, hCoV-OC43, FFRA in HCT-8 cells, 72 h p.i., full treatment), the EC50 was determined as 2.3 ± 0.5 µM. In the data set on hCoV-OC43 (Betacoronavirus 1, OC43, HCT-8, 72 h, read-out: EC90, concentration inhibiting 90% of virus replication), the EC90 worked out at 23.3 ± 0.4 µM. Also, the “SI, Selectivity Index (ratio of CC50 to EC50)” value in the data set with hCoV-OC43 (HCT-8 CC50 / hCoV-OC43 EC50) turned out to be 131. Further, half-maximal cytotoxicity with HCT-8 cells (CC50) was put at 301 ± 8.97 µM. Also, in data set [1], half-maximal cytotoxicity (CC50 at 72 h) was put at 301 ± 9 µM. In data set [2] (PBS, polar protic solvent), the “emission in PBS solution” value is on record as “completely quenched”. The “emission in TRIS buffer” value in data set [2] (TRIS buffer (pH 8), conditions of the enzymatic assay, no protein) is listed as “absence of emission”. Further, in data set [2] (in ACN), the Lifetime was under 1 ns, the “QY (luminescence quantum yield)” value is 0.12, the Stokes shift is 4174 cm^–1 and the λabs came out at 442 nm. Also, the λem in data set [2] (in ACN) was 535 nm and 542 nm.
